# Source: patent publication US20260297060A1, “COMPOUNDS FOR THE DEGRADATION OF MUTANT BRAF” (C4 THERAPEUTICS, INC., priority 2023, published 2026)
# Where two headings read alike, the source gives them in different places.
# Assay: Pharmacokinetics after 21 days dosing in the efficacy study (plasma, tumor and brain concentrations; plasma AUC at steady state), Example 14
# Format: in vivo, female BALB/c nude mice
# Details: for Concentration in Brain / concentration at 24 h: 24 h; for Concentration in Brain: BQL: below the lower limit of quantitation; for concentration at 4 h / concentration at 24 h / concentration at 0.25 h / concentration at 0.5 h / concentration at 1 h / concentration at 2 h / concentration at 8 h / concentration at 10 h / AUC: mouse, po; for AUC: read-out: Plasma AUC at steady state (Day 21), Average
# Experimental: Agents were tested in the A375 human melanoma xenografts. Compound 26 and Compound 141 were administered to BALB/c nude mice bearing A375 tumors from PG-DO and dosed via PO twice a day (BID) or third a day (TIP) or dosed P daily (QD) from PG-D. Dabrafenib was administered to BALB/c nude mice bearing A375 tumors from PG-D1 and dosed via P daily (QD). Compound 26 was dosed at 1.5 mg/kg (QD), 2 mg/kg (TID), 3 mg/kg (BID), 6 mg/kg (QD) and 10 mg/kg (BID) for 21 days. Compound 141 was dosed at 0.75 mg/kg (BID), 1 mg/kg (TID), 1.5 mg/kg (BID), 3 mg/kg (QD) and 5 mg/kg (BID) for 21 days. Dabrafenib was dosed at 100 mg/kg for 21 days. This study was non-GLP.
# The plasma samples were collected at predetermined time points for PK analysis. For non-termination plasma collection: the blood samples were collected into the 1.5 mL Eppendorf tubes containing 3 μL of 0.5 M EDTA-K2. And then the anticoagulant blood samples were centrifuged at 2,500 g at 4° C. for 15 minutes. For termination plasma collection: the mice was euthanized at predetermined time points post the treatment, the blood samples were collected into the 1.5 mL Eppendorf tubes containing 15 μL of 0.5 M EDTA-K2. And then the anticoagulant blood samples were centrifuged at 2,500 g at 4° C. for 15 minutes. The plasma samples were separated into 2 aliquots. The 1st was used for PK analysis, and the 2nd was served as backup.
# The tumor samples were collected at predetermined time points for PK and WB analysis. The tumor was dissected out and split into 3 parts. The 1st part was used for PK analysis, the 2nd part was used for WB analysis and the last one was used as backup for the study. The samples were transferred into pre-labeled tubes and quickly froze in liquid nitrogen within 2 minutes after dissection. The samples were stored at −80° C. before analysis.
# The brain samples were collected at predetermined time points for PK and potential WB analysis. The brain was dissected out and split into 3 parts (left brain, right brain upper and right brain lower), the left brain was used for PK, the right brain upper was used for WB and the last one was used as the backup for the study. The samples were transferred into pre-labeled tubes and quickly froze in liquid nitrogen within 2 minutes after dissection. The samples were stored at −80° C. before analysis.
# The harvested plasma and tumor samples were processed for pharmacokinetics analysis by LC-MS/MS with a concentration range of 1.00-1,000 ng/mL for dabrafenib in plasma and 0.0500-50 ng/mL in tumor and brain homogenate, 5.00-10,000 ng/mL for Compound 141 in plasma and 0.200~200 ng/ml in tumor and brain homogenate. 20.0~20,000 ng/mL for Compound 26 in plasma and 0.5~500 ng/mL for Compound 26 tumor and brain homogenate.
# Dabrafenib, Compound 26 and Compound 141 in female BALB/c nude mice plasma (K2-EDTA), tumor and brain homogenate were analyzed by LC-MS/MS (Triple Quad 6500+ Low Mass). Verapamil (5 ng/mL) in acetonitrile: methanol (V: V=95:5) was used as the internal standard for Dabrafenib, Compound 26 and Compound 141 in plasma. Verapamil (0.5 ng/mL) in acetonitrile: methanol (V: V=95:5) was used as the internal standard for Dabrafenib, Compound 26 and Compound 141 in tumor and brain homogenate.
# An aliquot of 10 μL unknown sample, calibration standard, quality control, dilute quality control, single blank and double blank samples were added to the 96-well plate. Each sample for Dabrafenib, Compound 26 and Compound 141 in plasma (except the double blank) was quenched with 200 μL IS respectively (double blank sample was quenched with 200 μL ACN: MeOH (V: V=95:5)); each sample for Dabrafenib, Compound 26 and Compound 141 in tumor and brain(except the double blank) was quenched with 100 μL IS respectively (double blank sample was quenched with 100 μL ACN: MeOH (V: V=95:5)); and then the mixture was vortex-mixed for 5 min at 800 rpm and centrifuged for 15 min at 3220 g (4000 rpm), 4° C. […]
# [1] = plasma, 1.5 mg/kg p.o. BID x 21 days, mean ± SEM
# [2] = plasma, 1.5 mg/kg p.o. BID x 21 days, mean ± SEM, read-out: Concentration in Plasma
# [3] = plasma, 2 mg/kg p.o. TID x 21 days, mean ± SEM
# [4] = plasma, 2 mg/kg p.o. TID x 21 days, mean ± SEM, read-out: Concentration in Plasma
# [5] = plasma, 3 mg/kg p.o. BID x 21 days, mean ± SEM
# [6] = plasma, 3 mg/kg p.o. BID x 21 days, mean ± SEM, read-out: Concentration in Plasma
# [7] = plasma, 6 mg/kg p.o. QD x 21 days, mean ± SEM
# [8] = plasma, 6 mg/kg p.o. QD x 21 days, mean ± SEM, read-out: Concentration in Plasma
# [9] = plasma, 10 mg/kg p.o. BID x 21 days, mean ± SEM
# [10] = plasma, 10 mg/kg p.o. BID x 21 days, mean ± SEM, read-out: Concentration in Plasma
# [11] = tumor, 1.5 mg/kg p.o. BID x 21 days, mean ± SEM, read-out: Concentration in Tumor
# [12] = tumor, 2 mg/kg p.o. TID x 21 days, mean ± SEM, read-out: Concentration in Tumor
# [13] = tumor, 3 mg/kg p.o. BID x 21 days, mean ± SEM, read-out: Concentration in Tumor
# [14] = tumor, 6 mg/kg p.o. QD x 21 days, mean ± SEM, read-out: Concentration in Tumor
# [15] = tumor, 10 mg/kg p.o. BID x 21 days, mean ± SEM, read-out: Concentration in Tumor
smiles,measurement,setting,value
"CCN(C)S(=O)(=O)Nc1ccc(F)c(Oc2ccc3ncn([C@H]4COC5(CCN(C6CC7(C6)CN(c6cc8c(cc6F)c(N6CCC(=O)NC6=O)nn8C)C7)CC5)C4)c(=O)c3c2)c1C#N [Compound 26, (3R)-3-[6-[2-cyano-3-[[ethyl(methyl)sulfamoyl]amino]-6-fluoro-phenoxy]-4-oxo-quinazolin-3-yl]-8-[2-[3-(2,4-dioxohexahydropyrimidin-1-yl)-5-fluoro-1-methyl-indazol-6-yl]-2-azaspiro[3.3]heptan-6-yl]-1-oxa-8-azaspiro[4.5]decane]",Concentration in Brain,1.5 mg/kg p.o. BID x 21 days,BQL
same,Concentration in Brain,2 mg/kg p.o. TID x 21 days,BQL
same,Concentration in Brain,3 mg/kg p.o. BID x 21 days,BQL
same,concentration at 4 h,"brain, 1.5 mg/kg p.o. BID x 21 days, mean ± SEM, read-out: Concentration in Brain",28 ± 8.47 ng/g
same,concentration at 4 h,"brain, 2 mg/kg p.o. TID x 21 days, mean ± SEM, read-out: Concentration in Brain",51.1 ± 11.5 ng/g
same,concentration at 4 h,"brain, 3 mg/kg p.o. BID x 21 days, mean ± SEM, read-out: Concentration in Brain",66.6 ± 4.67 ng/g
same,concentration at 4 h,"brain, 6 mg/kg p.o. QD x 21 days, mean ± SEM, read-out: Concentration in Brain",116 ± 8.11 ng/g
same,concentration at 24 h,"brain, 6 mg/kg p.o. QD x 21 days, read-out: Concentration in Brain",7.19 ng/g
same,concentration at 4 h,"brain, 10 mg/kg p.o. BID x 21 days, mean ± SEM, read-out: Concentration in Brain",233 ± 48.4 ng/g
same,concentration at 24 h,"brain, 10 mg/kg p.o. BID x 21 days, read-out: Concentration in Brain",7.79 ng/g
same,concentration at 0.25 h,[1],1330 ± 120 ng/mL
same,concentration at 0.5 h,[1],1910 ± 332 ng/mL
same,concentration at 1 h,[1],3490 ± 364 ng/mL
same,concentration at 2 h,[1],3140 ± 671 ng/mL
same,concentration at 4 h,[2],2160 ± 716 ng/mL
same,concentration at 8 h,[1],912 ± 118 ng/mL
same,concentration at 10 h,[1],694 ± 79.9 ng/mL
same,concentration at 24 h,[2],32.3 ng/mL
same,AUC,"plasma, 1.5 mg/kg p.o. BID × 21 days",37400 ng·h/mL
same,concentration at 0.25 h,[3],2630 ± 273 ng/mL
same,concentration at 0.5 h,[3],5750 ± 1100 ng/mL
same,concentration at 1 h,[3],5420 ± 571 ng/mL
same,concentration at 2 h,[3],5110 ± 286 ng/mL
same,concentration at 4 h,[4],3790 ± 666 ng/mL
same,concentration at 8 h,[3],2060 ± 150 ng/mL
same,concentration at 10 h,[3],1550 ± 37.1 ng/mL
same,concentration at 24 h,[4],106 ± 17.7 ng/mL
same,AUC,"plasma, 2 mg/kg p.o. TID × 21 days",88300 ng·h/mL
same,concentration at 0.25 h,[5],2490 ± 107 ng/mL
same,concentration at 0.5 h,[5],4860 ± 801 ng/mL
same,concentration at 1 h,[5],5830 ± 591 ng/mL
same,concentration at 2 h,[5],6750 ± 675 ng/mL
same,concentration at 4 h,[6],3970 ± 452 ng/mL
same,concentration at 8 h,[5],3030 ± 252 ng/mL
same,concentration at 10 h,[5],2470 ± 266 ng/mL
same,concentration at 24 h,[6],116 ± 2.4 ng/mL
same,AUC,"plasma, 3 mg/kg p.o. BID × 21 days",87900 ng·h/mL
same,concentration at 0.25 h,[7],4440 ± 284 ng/mL
same,concentration at 0.5 h,[7],9990 ± 1160 ng/mL
same,concentration at 1 h,[7],12900 ± 669 ng/mL
same,concentration at 2 h,[7],14600 ± 723 ng/mL
same,concentration at 4 h,[8],8710 ± 1880 ng/mL
same,concentration at 8 h,[7],8220 ± 421 ng/mL
same,concentration at 10 h,[7],6200 ± 192 ng/mL
same,concentration at 24 h,[8],156 ± 10.9 ng/mL
same,AUC,"plasma, 6 mg/kg p.o. QD × 21 days",115000 ng·h/mL
same,concentration at 0.25 h,[9],8790 ± 316 ng/mL
same,concentration at 0.5 h,[9],19300 ± 2220 ng/mL
same,concentration at 1 h,[9],20200 ± 2240 ng/mL
same,concentration at 2 h,[9],21300 ± 1560 ng/mL
same,concentration at 4 h,[10],15100 ± 2210 ng/mL
same,concentration at 8 h,[9],10900 ± 379 ng/mL
same,concentration at 10 h,[9],8660 ± 186 ng/mL
same,concentration at 24 h,[10],273 ± 24.8 ng/mL
same,AUC,"plasma, 10 mg/kg p.o. BID × 21 days",312000 ng·h/mL
same,concentration at 4 h,[11],392 ± 150 ng/g
same,concentration at 24 h,[11],11.8 ± 1.59 ng/g
same,concentration at 4 h,[12],930 ± 57.3 ng/g
same,concentration at 24 h,[12],80.7 ± 25.2 ng/g
same,concentration at 4 h,[13],1430 ± 159 ng/g
same,concentration at 24 h,[13],54.3 ± 8.91 ng/g
same,concentration at 4 h,[14],2910 ± 459 ng/g
same,concentration at 24 h,[14],338 ± 169 ng/g
same,concentration at 4 h,[15],4250 ± 313 ng/g
same,concentration at 24 h,[15],663 ± 153 ng/g
